Test results taken from patent US11850235B2, “Preventative effect of mebendazole against malignancies in neurofibromatosis” (priority 2021, dated 2023).

Key:
NF90-8 cells = assay: Cell proliferation assay (Cell Counting Kit-8), NF90-8; format: cell-based; details: Homo sapiens, 72 h
Protocol: (§1) The human NF1-associated MPNST cell line NF90.8 was privately provided and sNF96.2 was purchased from the American Type Culture Collection. […] These cell lines were not authenticated. All cells were tested and found free of mycoplasma contamination. A cell proliferation assay was performed using Cell Counting Kit-8. Cells in 100 μL media in a 96-well plate were incubated with 10 μL of WST-8, a tetrazolium salt, at 37° C. in a tissue culture incubator. Absorbance was measured at 450 nm. Half maximal inhibitory concentrations (IC50s) were determined by incubating cells at a range of concentrations for 72 h and were calculated using the log (inhibitor) vs. response function and non-linear fit. Human MPNST cells NF90-8 and sNF96.2, both derived from NF1 patients, were treated with various MBZ concentrations for 72 h. […] Because NF1-associated tumors are mainly driven by Ras hyperactivation, MBZ's ability to inhibit Ras activity in the NF90-8 cell line was studied by exposing NF90-8 cells to different concentrations of MBZ (0.2 and 1 μM) for 24 h. […] This confirmed the Ras inhibitory effect of MBZ in vitro.

[1] = system: NPcis (cis Nf1+/-; Tp53+/-) mice; assay: Chemoprevention in NPcis mice (tumor onset, survival, cause of death); format: in vivo; details: for effect on survival of non-solid malignancy-related and unknown causes of death / effect on overall median survival vs controls / overall median survival: NPcis mice; for effect on survival of non-solid malignancy-related and unknown causes of death: male and female; for effect on overall median survival vs controls: treatment from day 60; for overall median survival: MBZ 195 mg/kg feed, CXB 1000 ppm feed, SUL 160 ppm drinking water; for increase in median survival: 195 mg/kg feed
Excerpt: NPcis (cis Nf1+/−; Tp53+/−) mice in C57BL/6 background (B6;129S2-Trp53tm1Tyj Nf1tm1Tyj/J) were bred by pairing male heterozygous NPcis mice with the female wildtype mice to better generate MPNST animals. Since homozygous Nf1/Tp53 KO mice are embryonically lethal, only heterozygous and wildtype pups were born. Like NF1 patients, NPcis mice spontaneously develop predominantly soft tissue sarcomas including MPNSTs (genetically engineered murine (GEM) PNSTs) and malignant Triton tumors, as well as rhabdomyosarcomas and astrocytomas that severely limit their life expectancy to ˜5 months. The addition of heterozygous Tp53 knock-out (KO) accelerates the cancer development, which mimics the secondary mutations required for the transformation to malignancies such as MPNST, where the second copy of Nf1 is also lost due to the loss of heterozygosity (LOH).
(§2) At day 60 after birth, heterozygous mice were started on the medicated feed or water. The mouse diet consisting of 45 kcal % fat containing soybean oil and lard for fat was used as the control feed. […] Sulindac was added to drinking water at 160 ppm (0.5 mg/day) in 4 mM sodium phosphate buffer as previously described. Animals were palpated weekly for tumors and survival and cause of death were recorded.
In order to investigate the tumor-preventative effects of MBZ, continuous oral administration of MBZ via 195 mg/kg feed was initiated at 60 days after birth, before the formation of any malignancies. Mice were palpated weekly for the presence of any tumors. For the purpose of this study, ‘Solid Malignancies’ were defined as any type of sarcoma and astrocytoma, in addition to neuroblastomas and carcinomas, while ‘Others’ included non-solid malignancies such as lymphomas, leukemias and unknown causes of death.

[2] = system: GTP-bound Ras in NF90-8 cells; assay: Ras activity assay (Active Ras Detection Kit, GST-Raf1-RBD pull-down); format: cell-based, human; details: 0.2 and 1 μM, 24 h
Protocol: A Ras activity assay was performed according to the manufacturer's instructions for the Active Ras Detection Kit. Briefly, cells were lysed with the Lysis/Binding/Wash buffer and pelleted, then the supernatant was used as the cell lysate. In the positive control, 5 μL of 10 mM GTPγS was added to 500 μL of lysates and incubated at 30° C. for 15 min. Cell lysates were incubated with glutathione resin, together with the purified GST-Raf1-RBD protein at 4° C. for 1 h in a spin cup. The resin was washed, and the bound proteins were eluted by incubating with dithiothreitol (DTT)-containing sample buffer at RT for 2 min. Eluted samples were heated and analyzed by anti-Ras Western blotting. Human MPNST cells NF90-8 and sNF96.2, both derived from NF1 patients, were treated with various MBZ concentrations for 72 h. […] Because NF1-associated tumors are mainly driven by Ras hyperactivation, MBZ's ability to inhibit Ras activity in the NF90-8 cell line was studied by exposing NF90-8 cells to different concentrations of MBZ (0.2 and 1 μM) for 24 h. […] This confirmed the Ras inhibitory effect of MBZ in vitro.

pERK = assay: Immunohistochemistry of pERK1/2 and ERK1/2 in tumors of NPcis mice; format: in vivo; details: sarcomas of NPcis mice, 195 mg/kg diet
Protocol: Mouse tumors were first fixed by formalin and embedded in paraffin. For hematoxylin & eosin (H&E) staining, the section was de-paraffinized and stained by the standard hematoxylin and eosin procedure to visualize tissue structures. For immunostaining, rabbit anti-Erk1/2 and anti-pErk1/2 antibodies were used. Sections were de-paraffinized using a standard procedure and blocked using 1.9% H2O2 in methanol at room temperature for 10 min. Sections were heated at 100° C. for 20 min in the antigen retrieval citrate solution and blocked by the serum-free protein blocker for 5 min at room temperature. After incubation with the rabbit anti-Erk1/2 or anti-pErk1/2 antibody diluted at 1:50 overnight at 4° C., biotin-conjugated anti-rabbit IgG was applied for 20 min at room temperature, followed by washing and incubation with streptavidin peroxidase for 15 min at room temperature. Antibody binding was visualized by the 3,3′-Diaminobenzidine (DAB) chromogen system. Subsequently, sections were counterstained by hematoxylin. Immunohistochemistry (IHC) quantification of representative tumor tissue sections was carried out with open source software using JPEG files. Mean optical density (OD) was calculated as the log average (maximal intensity/mean intensity) after image processing with color deconvolution and background subtraction. […]

[3] = Dose-dependent toxicity of medicated feed in NPcis mice; format: in vivo
Protocol: as §2
This range was calculated based on previously established maximal dose of 50 mg/kg MBZ via oral gavage and the estimated daily food intake of a mouse. Mice were weighed weekly and examined for signs of toxicity over 4 weeks.

sNF96.2 cells = assay: Cell proliferation assay (Cell Counting Kit-8), sNF96.2; format: cell-based; details: Homo sapiens, 72 h
Protocol: as §1

[4] = 195 mg/kg feed from day 60, solid malignancies, male and female combined

With `COC(=O)Nc1nc2ccc(C(=O)c3ccccc3)cc2[nH]1` [MBZ, mebendazole] the IC50 (NF90-8 cells) was 180 nM, the “delay of tumor occurrence and median mortality vs control” value [1, 4] was 32 days and the “tumor occurrence and median mortality” value [1, 4] was 192 days. For the same compound, the “effect on survival of non-solid malignancy-related and unknown causes of death” value [1] was “did not affect”, the “effect on overall median survival vs controls” value [1] was “significantly increased” and the overall median survival [1] was 199 days. For the same compound, the “increase in median survival” value ([1]; female mice, solid malignancies) was 14 days, the “increase in median survival” value ([1]; male mice, solid malignancies) was 34.5 days and the “reduction in solid cancer-related causes of death” value ([1]; vs control NPcis mice) was roughly 25%. For the same compound, the “activated form of GTP-bound Ras” value [2] was “reduced in MBZ-treated NF90-8 cells in a concentration-dependent manner”, the “ERK staining, mean intensity” value (pERK) was 0.07 and the “pERK DAB staining, mean optical density (OD)” value (pERK; three tumor samples) was 0.02. For the same compound, the “tolerability of long-term daily continuous administration” value ([3]; 195 mg/kg feed, started 60 days after birth, male and female) was “well tolerated”, the signs of toxicity ([3]; 250 and 215 mg/kg diets, over 4 weeks) was “excessive toxicity” and the weight loss ([3]; 250 and 215 mg/kg diets, over 4 weeks, male and female NPcis mice) was 10-15%. The IC50 (sNF96.2 cells) was 320 nM.
With `CC1=C(CC(=O)O)c2cc(F)ccc2/C1=C\c1ccc([S+](C)[O-])cc1` (stereo not shown) [SUL, sulindac] the “effect on survival of non-solid malignancy-related and unknown causes of death” value [1] was “neither SUL nor CXB had an effect”, the “effect on overall median survival vs controls” value [1] was “failed to demonstrate any effect” and the overall median survival [1] was 171.5 days.
